Among the data in ChEMBL document CHEMBL1144312, “Synthesis of mono-glucose-branched cyclodextrins with a high inclusion ability for doxorubicin and their efficient glycosylation using Mucor hiemalis endo-beta-N-acetylglucosaminidase” (Bioorg Med Chem Lett, 2005) are K diss, Ka and K ass values, retold here.

Experiment [1] deals with doxorubicin (immobilized ligand, no protein target). The experiment can be described thus: Dissociation rate constant for cyclodextrin binding to immobilized doxorubicin by SPR biosensor. (In general: Surface plasmon resonance follows binding to a sensor surface in real time, without labels.)
For experiment [2] the test system is unchanged. The experiment can be described thus: Association constant for cyclodextrin binding to immobilized doxorubicin by SPR biosensor.
For experiment [3] the test system is unchanged. The experiment can be described thus: Association rate constant for cyclodextrin binding to immobilized doxorubicin by SPR biosensor.

Regarding `OCC1OC2OC3C(CO)OC(OC4C(CO)OC(OC5C(COCCCOc6ccc(O[C@@H]7O[C@@H](CO)[C@@H](O)[C@H](O)[C@@H]7O)cc6)OC(OC6C(CO)OC(OC7C(CO)OC(OC8C(CO)OC(OC1C(O)C2O)C(O)C8O)C(O)C7O)C(O)C6O)C(O)C5O)C(O)C4O)C(O)C3O` (stereo partly drawn), the K diss in experiment [1] was 2.1 10E-2·1/s. Besides, in experiment [2], the Ka is 220 10E3·1/M. Further, in experiment [3], the K ass was 4.6 10E3·1/M·1/s.
